Columns and labels:
[1] = test system: rats; conditions: ref EFSA 2004; cited from earlier work
[2] = test system: rats; conditions: acute oral, rats, OECD 401; ref ECHA dissemination portal; cited from earlier work
[3] = test system: rats; conditions: rat, in vivo; cited from earlier work
[4] = test system: bacteria; conditions: OECD 471; ref ECHA dissemination portal; cited from earlier work
[5] = test system: rats; conditions: rat, in vivo; cited from earlier work; remark: listed apart in the source
[6] = test system: rats; conditions: read-across from MP; ref ECHA dissemination portal; cited from earlier work
[7] = Octanol–water partition coefficient (Log Kow); format: physicochemical; conditions: mean; OECD TG 107 and OECD TG 117
Text: Generally, these parabens have very similar physico-chemical properties.

[8] = test system: SD-JCL rats; conditions: feeding study, ref Sado 1973, Liebert 1984; cited from earlier work
[9] = in vivo; conditions: for concentration at 1 h / Tmax / AUC(0-t) / Cmax: Wistar, rat, serum; for concentration at 1 h: oral; for Tmax / AUC(0-t) / Cmax: po; for AUC(0-t) / Cmax / AUC0-1 h/AUC0–t / C1h/Cmax / Clast / tlast: parent compound
Procedure: These studies were conducted similarly to OECD TG 417 applying 500 and 1000 mg/kg body weight (bw) test item via oral gavage to 10 males and 10 females per dose group. Focus of the toxicokinetic evaluation was on the measurement of the serum concentrations of the parent compounds and their (common) major metabolite p-hydroxybenzoic acid by […] in order to assess the systemic uptake and elimination of the parent compounds and this major metabolite [see also ECHA ([2017a])]. The limit of quantification was determined as 10 ng/mL for all parabens, and as 130 ng/mL for p-hydroxybenzoic acid. […] On account of these major aims, investigations of the faeces and urine were not included in the toxicokinetics screening studies.

[10] = test system: rats; conditions: rat, in vivo; cited from earlier work; remark: listed apart in the source
[11] = Grouping and read-across of NOAEL (ECHA RAAF Scenario 5; analogue approach)
Text: The strength of evidence for the respective AEs was scored by the assessment options indicated in the RAAF ranging from Score 5 (acceptable with high confidence) to Score 1 (not acceptable) (ECHA [2017b]).

[12] = read-across by interpolation from methyl paraben and propyl paraben

In the case of CCOC(=O)c1ccc(O)cc1 [Ethyl paraben, Ethyl 4-hydroxybenzoate], the NOAEL [1] is given as 1000 mg/kg bw/day, the LD50 [2] is given as > 3100 (OECD 401; 1982) mg/kg bw and the Skin sensitisation classification [3] is given as “Not sensitising (equiv. OECD 406; 1981)”. The “Mutagenicity in bacteria classification” value [4] was “Not mutagenic [c] (OECD 471; 2012)”, the “Eye irritation/eye corrosion classification” value [5] was “Not irritating (OECD 405; 1983)” and the “Genetic toxicity in vivo (rats) classification” value [6] was “Not clastogenic (read-across from MP)”. The “Log Kow” value [7] was 2.3 (mean; OECD TG 107 and OECD TG 117), the “NOAEL, 25-week repeated dose toxicity” value [8] was “NOAEL: 1200 (25-week repeated dose toxicity [a]) mg/kg body weight/day” and the concentration at 1 h ([9]; female, 500 mg/kg) was 0.116 µg/mL. For the same compound, the concentration at 1 h ([9]; female, 1000 mg/kg) was 0.305 µg/mL, the Tmax ([9]; female, 500 mg/kg) was 4.8 min and the AUC(0-t) ([9]; female, 500 mg/kg, AUC0-1 h) was 1.08 µg·h/mL. For the same compound, the AUC(0-t) ([9]; female, 500 mg/kg, AUC0–t) was 1.54 µg·h/mL, the Cmax ([9]; female, 500 mg/kg) was 5.93 µg/mL and the Tmax ([9]; female, 1000 mg/kg) was 10.2 min. For the same compound, the AUC(0-t) ([9]; female, 1000 mg/kg, AUC0-1 h) was 1.66 µg·h/mL, the AUC(0-t) ([9]; female, 1000 mg/kg, AUC0–t) was 3.32 µg·h/mL and the Cmax ([9]; female, 1000 mg/kg) was 5.15 µg/mL. It also gave a Cmax ([9]; female, 1000 mg/kg, females) of 5 µg/mL, a concentration at 1 h ([9]; male, 500 mg/kg) of 0.0716 µg/mL and a concentration at 1 h ([9]; male, 1000 mg/kg) of 0.0966 µg/mL. The Tmax ([9]; male, 500 mg/kg) was 4.8 min, the AUC(0-t) ([9]; male, 500 mg/kg, AUC0-1 h) was 0.32 µg·h/mL and the AUC(0-t) ([9]; male, 500 mg/kg, AUC0–t) was 0.632 µg·h/mL. It also gave a Cmax ([9]; male, 500 mg/kg) of 1.54 µg/mL, a Tmax ([9]; male, 1000 mg/kg) of 4.8 min and an AUC(0-t) ([9]; male, 1000 mg/kg, AUC0-1 h) of 0.49 µg·h/mL. The AUC(0-t) ([9]; male, 1000 mg/kg, AUC0–t) was 0.789 µg·h/mL, the Cmax ([9]; male, 1000 mg/kg) was 2.39 µg/mL and the Cmax ([9]; male, 1000 mg/kg, males) was 2 µg/mL. The “AUC0-1 h/AUC0–t” value ([9]; 500 mg/kg, female) was 70%, the C1h/Cmax ([9]; 500 mg/kg, female) was 2.0% and the Clast ([9]; 500 mg/kg, female) was 0.0239 µg/mL. For the same compound, the tlast ([9]; 500 mg/kg, female) was 8.0 h, the “AUC0-1 h/AUC0–t” value ([9]; 500 mg/kg, male) was 51% and the C1h/Cmax ([9]; 500 mg/kg, male) was 4.7%. For the same compound, the Clast ([9]; 500 mg/kg, male) was 0.0706 µg/mL, the tlast ([9]; 500 mg/kg, male) was 8.0 h and the “AUC0-1 h/AUC0–t” value ([9]; 1000 mg/kg, female) was 50%. The C1h/Cmax ([9]; 1000 mg/kg, female) was 5.9%, the Clast ([9]; 1000 mg/kg, female) was 0.168 µg/mL and the tlast ([9]; 1000 mg/kg, female) was 8.0 h. The “AUC0-1 h/AUC0–t” value ([9]; 1000 mg/kg, male) was 62%, the C1h/Cmax ([9]; 1000 mg/kg, male) was 4.0% and the Clast ([9]; 1000 mg/kg, male) was 0.0333 µg/mL. For the same compound, the tlast ([9]; 1000 mg/kg, male) was 8.0 h, the “Skin irritation/skin corrosion classification” value [10] was “Not irritating (OECD 404; 1983)” and the “NOAEL for repeated-dose toxicity and DART” value ([11]; interpolated from methyl paraben and propyl paraben) was 1000 mg/kg bw/day. The “NOAEL, EOGRTS: developmental and reproductive toxicity” value [11, 12] was “NOAEL: 1000 (Read-across by interpolation) mg/kg body weight/day”, the “NOAEL, developmental toxicity (OECD TG 414)” value [11, 12] was “NOAEL: 1000 (Read-across by interpolation) mg/kg body weight/day” and the “NOAEL, reproductive toxicity (OECD TG 421/422)” value [11, 12] was “NOAEL: 1000 (Read-across by interpolation) mg/kg body weight/day”.
